# Source: patent US11667651B2, “Aminopyridine derivatives as phosphatidylinositol phosphate kinase inhibitors” (HiberCell, Inc., priority 2017, dated 2023)
# What was measured:
# PIP4K2B = target: T1, PIP4K2B (Homo sapiens, UniProt P78356); experiment: Trans-FI P kinase assay PIP4K2B (Table 4); format: biochemical; details: compounds listed under IC50 bins; read-out: Trans-FI P kinase assays: PIP4K2B IC50
# T1 construct: made in house; host or cells: E. coli
# T1 sequence (P78356 1-416): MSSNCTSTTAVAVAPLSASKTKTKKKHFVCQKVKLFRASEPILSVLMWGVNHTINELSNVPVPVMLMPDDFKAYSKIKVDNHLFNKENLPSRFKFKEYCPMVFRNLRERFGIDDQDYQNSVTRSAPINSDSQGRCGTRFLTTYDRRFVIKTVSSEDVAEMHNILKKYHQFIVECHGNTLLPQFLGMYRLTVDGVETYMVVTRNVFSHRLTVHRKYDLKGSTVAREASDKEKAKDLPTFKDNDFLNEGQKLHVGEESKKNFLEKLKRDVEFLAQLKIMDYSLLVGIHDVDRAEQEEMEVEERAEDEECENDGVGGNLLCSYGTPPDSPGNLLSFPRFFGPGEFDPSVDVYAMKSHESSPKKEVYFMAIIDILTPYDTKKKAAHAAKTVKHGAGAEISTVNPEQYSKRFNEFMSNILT
# Source text: GST tagged PIP4KtypeIIA and B enzymes were overexpressed in E. Coli and purified to >80% homogeneity. Phosphatidyl inositol-5-phosphate (PI5P, Cat. #850152, Avanti Polar Lipids Inc.) was used as the lipid substrate and phosphatidyl ethanolamine (DOPE 18:1, Cat. #850725, Avanti Polar Lipids Inc.) was used as the carrier lipid for assays. Ultrapure ATP and GTP was purchased from Bellbrooke Labs. ADP Glo reagents were obtained from Promega. Transcreener FI reagent was obtained from Bellbrooke labs.
# GST-tagged PIP4KtypeIIB (3.4 μL, 2.77 mg/mL) was diluted to 5 mL using HNE buffer to yield 5× enzyme stock (25 nM)
# Lipid Preparation: In a 10 mL pyrex glass vial, […] were suspended in 2.5 mL of HEPES buffer mix and 2.5 mL of H:E buffer. The contents were mixed and sonicated for 3 min to yield a translucent lipid stock.
# Compound Preparation: Compounds were stored as 5 mM stocks in neat DMSO as room temperature in glass vials. 5 mM stocks were diluted to 2 mM and then serially diluted (3×) in neat DMSO in 96 well polypropylene plates. From the serially diluted stocks, 3 μL was delivered into 250 μL of 25% DMSO (in water) to generate 5× compound stocks. Typically, the highest compound conc. was 24 μM.
# The assay volume was kept at 25 μL. To each well of the reaction plate, 10 μL of lipid stock (1:1 ratio PI5P:DOPE) was delivered. This was followed by the addition of 5 μL of compound in 25% DMSO. Then, to each well, 5 μL of 25 nM (5×) typeIIB enzyme was delivered. The contents were mixed well and incubated for 1 h at 27° C. After 1 h, reaction was initiated by adding 5 μL of 500 μM GTP and the contents were mixed well with a multi-channel pipetteman. The final concentration of the reagents are as follows: 50 mM HEPES, pH 7.3, 10 mM MgCl2, 20 mM NaCl, 0.01% v/v triton-X100, 5% DMSO, 100 μM GTP, 80 μM (2 μg) PI5P, 2 μg DOPE, and 5 nM PIP4KIIB Typically, the highest conc. of compounds was 4.8 μM and the lowest conc. was 0.
# After 2 h, the reaction was quenched by adding 25 μL of transcreener FI reagent. The contents were incubated at rt for 1 h and the Fluorescence (Ex: 584 Em: 623) was read using Molecular Devices Paradigm plate reader. […] The blanks were averaged and subtracted from all other wells. Using a calibration curve, RFU was converted to μM GDP (product). IC50 was calculated by plotting the residual activity (expressed as % No inhibitor control) vs. log [Inh. conc.]
# PIP4K2A = target: T2, PIP4K2A (Homo sapiens, UniProt P48426); experiment: Kinase Assay PIP4K2 A (Table 2); format: biochemical; parameters: 4 nM PIP4K2A (full length protein, SignalChem); purchased SignalChem; details: compounds listed under IC50 bins
# T2 sequence (P48426 1-406): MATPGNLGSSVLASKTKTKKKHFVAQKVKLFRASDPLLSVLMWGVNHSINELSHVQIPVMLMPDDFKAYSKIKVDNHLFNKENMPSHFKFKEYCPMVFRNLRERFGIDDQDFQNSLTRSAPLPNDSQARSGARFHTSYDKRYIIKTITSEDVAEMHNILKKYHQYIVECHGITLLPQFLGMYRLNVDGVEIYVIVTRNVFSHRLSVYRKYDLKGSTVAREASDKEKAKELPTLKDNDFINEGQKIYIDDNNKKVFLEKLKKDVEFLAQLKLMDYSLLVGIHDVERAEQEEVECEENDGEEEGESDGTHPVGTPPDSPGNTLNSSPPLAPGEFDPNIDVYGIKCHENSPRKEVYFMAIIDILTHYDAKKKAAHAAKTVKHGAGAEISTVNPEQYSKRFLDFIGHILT
# In short: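 ADP-Glo luminescent read-out after 1 h room-temperature kinase reaction, started with 60 μM ATP solution following 15 min compound pre-incubation. Enzyme/substrate mix: 4 nM full-length PIP4K2A plus 100 μM PI(5)P diC8; buffer MOPS pH 7.2 with 25 mM MgCl2 and Tween 20. IC50 from 10-point, 3-fold titrations normalized to DMSO.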
Compound,IC50 (PIP4K2B),IC50 (PIP4K2A)
"CN1CCN(c2nc(Nc3cnc4c(c3)N3C(=O)CC[C@H]3CO4)ncc2-c2ccc(N3CCCC3=O)cc2)CC1 [Example 281, (S)-2-((4-(4-methylpiperazin-1-yl)-5-(4-(2-oxopyrrolidin-1-yl)phenyl)pyrimidin-2-yl)amino)-6,6a,7,8-tetrahydro-9H-pyrido[2,3-b]pyrrolo[1,2-d][1,4]oxazin-9-one]",10 to 100 nM,1 to 10 nM
"COCc1cc(Nc2cnc3c(c2)N2C(=O)CC[C@H]2CO3)ncc1-c1ccc(-c2nocc2C)cc1 [Example 282, (S)-2-((4-(methoxymethyl)-5-(4-(4-methylisoxazol-3-yl)phenyl)pyridin-2-yl)amino)-6,6a,7,8-tetrahydro-9H-pyrido[2,3-b]pyrrolo[1,2-d][1,4]oxazin-9-one]",10 to 100 nM,1 to 10 nM
"Cc1conc1-c1ccc(-c2ccc(Nc3cnc4c(c3)N3C(=O)CC[C@H]3CO4)nc2)cc1 [Example 283, (S)-2-((5-(4-(4-methylisoxazol-3-yl)phenyl)pyridin-2-yl)amino)-6,6a,7,8-tetrahydro-9H-pyrido[2,3-b]pyrrolo[1,2-d][1,4]oxazin-9-one]",10 to 100 nM,1 to 10 nM
"O=C1CCCN1c1ccc(-c2cnc(Nc3cnc4c(c3)N3C(=O)CC[C@H]3CO4)cc2OC2CCC2)cc1 [Example 284, (S)-2-((4-cyclobutoxy-5-(4-(2-oxopyrrolidin-1-yl)phenyl)pyridin-2-yl)amino)-6,6a,7,8-tetrahydro-9H-pyrido[2,3-b]pyrrolo[1,2-d][1,4]oxazin-9-one]",1 to 10 nM,≤ 1 nM
"COC1CN(c2nc(Nc3cnc4c(c3)N3C(=O)CC[C@H]3CO4)ncc2-c2ccc(N3CCCC3=O)cc2)C1 [Example 286, (S)-2-((4-(3-methoxyazetidin-1-yl)-5-(4-(2-oxopyrrolidin-1-yl)phenyl)pyrimidin-2-yl)amino)-6,6a,7,8-tetrahydro-9H-pyrido[2,3-b]pyrrolo[1,2-d][1,4]oxazin-9-one]",1 to 10 nM,1 to 10 nM
"O=C(COc1cccc2c1C(=O)N(C1CCC(=O)NC1=O)C2=O)NCCCC(=O)Nc1ccc(C(=O)Nc2cncc(Nc3ccc(-c4ccc(N5CCCC5=O)cc4)cn3)c2)cc1 (stereo not drawn) [Example 292, 4-(4-(2-((2-(2,6-dioxopiperidin-3-yl)-1,3-dioxoisoindolin-4-yl)oxy)acetamido)butanamido)-N-(5-((5-(4-(2-oxopyrrolidin-1-yl)phenyl)pyridin-2-yl)amino)pyridin-3-yl)benzamide]",10 to 100 nM,100 to 1000 nM
"COCc1nc(Nc2cnc3c(c2)N2C(=O)CC[C@H]2CO3)ncc1-c1ccc(C(=O)N(C)C)cc1 [Example 293, (S)-4-(4-(methoxymethyl)-2-((9-oxo-6a,7,8,9-tetrahydro-6H-pyrido[2,3-b]pyrrolo[1,2-d][1,4]oxazin-2-yl)amino)pyrimidin-5-yl)-N,N-dimethylbenzamide]",10 to 100 nM,10 to 100 nM
"O=C1CCC(N2C(=O)c3cccc(NCCOCCOCCOCC(=O)Nc4ccc(C(=O)Nc5cncc(Nc6ccc(-c7ccc(N8CCCC8=O)cc7)cn6)c5)cc4)c3C2=O)C(=O)N1 (stereo not drawn) [Example 296, 4-(2-(2-(2-(2-((2-(2,6-dioxopiperidin-3-yl)-1,3-dioxoisoindolin-4-yl)amino)ethoxy)ethoxy)ethoxy)acetamido)-N-(5-((5-(4-(2-oxopyrrolidin-1-yl)phenyl)pyridin-2-yl)amino)pyridin-3-yl)benzamide]",10 to 100 nM,100 to 1000 nM

# Continued, values first:
IC50 (PIP4K2B),IC50 (PIP4K2A),Compound
10 to 100 nM,10 to 100 nM,"Cn1cnnc1-c1ccc(-c2cnc(Nc3cnc4c(c3)N3C(=O)CC[C@H]3CO4)cc2C2CC2)cc1 [Example 285, (S)-2-((4-cyclopropyl-5-(4-(4-methyl-4H-1,2,4-triazol-3-yl)phenyl)pyridin-2-yl)amino)-6,6a,7,8-tetrahydro-9H-pyrido[2,3-b]pyrrolo[1,2-d][1,4]oxazin-9-one]"
1 to 10 nM,1 to 10 nM,"COc1nc(Nc2cnc3c(c2)N2C(=O)CC[C@H]2CO3)ncc1-c1ccc(-c2nncn2C)cc1 [Example 287, (S)-2-((4-methoxy-5-(4-(4-methyl-4H-1,2,4-triazol-3-yl)phenyl)pyrimidin-2-yl)amino)-6,6a,7,8-tetrahydro-9H-pyrido[2,3-b]pyrrolo[1,2-d][1,4]oxazin-9-one]"
1 to 10 nM,≤ 1 nM,"COc1nc(Nc2cnc3c(c2)N2C(=O)CC[C@H]2CO3)ncc1-c1ccc(-n2nncc2C)cc1 [Example 288, (S)-2-((4-methoxy-5-(4-(5-methyl-1H-1,2,3-triazol-1-yl)phenyl)pyrimidin-2-yl)amino)-6,6a,7,8-tetrahydro-9H-pyrido[2,3-b]pyrrolo[1,2-d][1,4]oxazin-9-one]"
1 to 10 nM,1 to 10 nM,"Cc1cnnn1-c1ccc(-c2ccc(Nc3cnc4c(c3)N3C(=O)CC[C@H]3CO4)nc2)cc1 [Example 289, (S)-2-((5-(4-(5-methyl-1H-1,2,3-triazol-1-yl)phenyl)pyridin-2-yl)amino)-6,6a,7,8-tetrahydro-9H-pyrido[2,3-b]pyrrolo[1,2-d][1,4]oxazin-9-one]"
10 to 100 nM,10 to 100 nM,"Cn1cnnc1-c1ccc(-c2ccc(Nc3cnc4c(c3)N3C(=O)CC[C@H]3CO4)nc2)cc1 [Example 291, (S)-2-((5-(4-(4-methyl-4H-1,2,4-triazol-3-yl)phenyl)pyridin-2-yl)amino)-6,6a,7,8-tetrahydro-9H-pyrido[2,3-b]pyrrolo[1,2-d][1,4]oxazin-9-one]"
1 to 10 nM,1 to 10 nM,"COc1nc(Nc2cnc3c(c2)N2C(=O)CC[C@H]2CO3)ncc1-c1ccc(C(=O)N(C)C)cc1 [Example 294, (S)-4-(4-methoxy-2-((9-oxo-6a,7,8,9-tetrahydro-6H-pyrido[2,3-b]pyrrolo[1,2-d][1,4]oxazin-2-yl)amino)pyrimidin-5-yl)-N,N-dimethylbenzamide]"
10 to 100 nM,10 to 100 nM,"CC(C)Cn1cnnc1-c1ccc(-c2ccc(Nc3cnc4c(c3)N3C(=O)CC[C@H]3CO4)nc2)cc1 [Example 297, (S)-2-((5-(4-(4-isobutyl-4H-1,2,4-triazol-3-yl)phenyl)pyridin-2-yl)amino)-6,6a,7,8-tetrahydro-9H-pyrido[2,3-b]pyrrolo[1,2-d][1,4]oxazin-9-one]"
